Assay results reported in US7470669B2, “Isolated polypeptide comprising a leptin fragment” (Serono Genetics Institute, S.A., priority 1999, dated 2008).
Marks after values point to notes of the source that are not given here.

What was measured:
LSR = LSR activity (oleate-induced 125I-LDL binding, uptake, degradation) in primary cultures of rat hepatocytes; type: cell-based; conditions: for oleate-induced LDL degradation / oleate-induced LDL binding: primary rat hepatocytes; for oleate-induced LDL degradation: 22-mer peptides; for oleate-induced LDL binding: peptide concentrations <50 μg/mL
Description: FIGS. 6A, 6B, and 6C show the effect of leptin on ^125I-LDL and ^125I-chylomicron binding to LSR in primary cultures of rat hepatocytes. For FIG. 6A, primary cultures of rat hepatocytes (48 hours after plating) were incubated at 37° C. for 30 min in the absence (□) or presence (▪) of 50 ng/mL leptin in Buffer A, followed by a 20 min incubation at 37° C. with 0.5 mM oleate. The cells were then washed with ice-cold PBS, precooled for 10 min, and then incubated for 1 h at 4° C. with increasing concentrations of ^125I-LDL in Buffer A. Cells were washed, were lysed in 0.1 N NaOH and were counted for radioactivity. Results are shown as the mean of duplicate determinations. For FIG. 6B, primary cultures of rat hepatocytes were incubated at 37° C. for 30 min with or without 20 ng/mL leptin followed by incubation at 37° C. for 4 h with 6 μg protein/mL ^125I-chylomicrons in the absence or presence of 0.5 mM oleate in Buffer A. The cells were then washed and the ^125I-chylomicrons bound to the cell surface were released into the media by incubation with 10 mM suramin. The media was recovered and the radioactivity was measured. Results are shown as the mean±SD of six determinations. Fir FIG. 6C, after incubation at 37° C. for 30 min with 50 ng/mL leptin, the cells were incubated at room temperature for 30 min with 200 μg IgG/mL antibodies directed against rat LSR protein or irrelevant IgG. The amount of ^125I-chylomicrons bound was determined, and results are shown as means±SD of triplicate (irrelevant) or quadruplicate (anti-LSR) determinations.
FIGS. 7A and 7B show a comparison of the effect of human and mouse leptin on LSR activity in rat hepatocytes and on postprandial increase in plasma TG in db^Pas/db^Pas mice. For FIG. 7A, primary cultures of rat hepatocytes were incubated 30 min at 37° C. without (open bar) or with 10 ng/mL recombinant human (solid bar) or mouse (hatched bar) leptin in Buffer A. Oleate (0.5 mM) and ^125I-LDL (20 μg/mL) were added and the cells were incubated 2 h at 37° C. The media were removed and were analyzed for TCA-soluble degradation products. The mean of duplicate determinations is shown. For FIG. 7B, db^Pas/db^Pas mice were given a test meal as previously described, followed immediately by injection i.p. of saline (open bar, n=4), human leptin (1 μg/animal; solid bar, n=3) or mouse leptin (0.25 μg/animal; hatched bar; n=3). The data represent the difference in TG concentrations measured at t=0 and the average of the concentrations at 3 and 4 hours. Results are shown as mean±SEM.
Cells were incubated 30 min at 37° C. with increasing concentrations of mouse (▪) or human (●) leptin peptide. Following this, 0.5 mM oleate and 20 μg/mL ^125I-LDL were added and the cells were further incubated for 2 h at 37° C. The cells were washed, and the amount of oleate-induced ^125I-LDL bound and degraded was measured as described previously (Bihain, B. E., and Yen, F. T. (1992). Free fatty acids activate a high-affinity saturable pathway for degradation of low-density lipoproteins in fibroblasts from a subject homozygous for familial hypercholesterolemia. Biochemistry 31, 4628-4636).
FIGS. 11A and 11B show the effect of mouse leptin (FIG. 11A) or leptin peptide (FIG. 11B) on postprandial plasma TG response in ob/ob mice. […] Postprandial triglyceridemia was measured as described previously. Each point represents the mean±SEM (A: saline, n=8, leptin, n=7; leptin peptide: saline, n=8, leptin, n=8). […] Primary cultures of rat hepatocytes were incubated 30 min at 37° C. with increasing concentrations of mouse leptin peptide. Oleate (0.5 mM) and ^125I-LDL (20 μg/mL) were added and the cells were incubated 2 h at 37° C. After washing, the amount of 125I-LDL bound to the cell surface was measured as described in the Examples section herein. […]

ob/ob mice = experiment: Postprandial plasma TG response after high-fat test meal in ob/ob mice; type: in vivo, mouse; conditions: for postprandial lipemic response: single subcutaneous injection of 50 ng
Description: FIGS. 11A and 11B show the effect of mouse leptin (FIG. 11A) or leptin peptide (FIG. 11B) on postprandial plasma TG response in ob/ob mice. […] Postprandial triglyceridemia was measured as described previously. Each point represents the mean±SEM (A: saline, n=8, leptin, n=7; leptin peptide: saline, n=8, leptin, n=8). […] Primary cultures of rat hepatocytes were incubated 30 min at 37° C. with increasing concentrations of mouse leptin peptide. Oleate (0.5 mM) and ^125I-LDL (20 μg/mL) were added and the cells were incubated 2 h at 37° C. After washing, the amount of 125I-LDL bound to the cell surface was measured as described in the Examples section herein.
Mice that were fasted for 2-3 hours were gavage-fed 300 μL of a test meal consisting of 60% fat (37% saturated, 27% mono-, and 36% polyunsaturated fatty acids), 20% protein and 20% carbohydrate, and providing 56 kcal of energy/kg (1.5 g butter, 1.5 g sunflower oil, 2.5 g nonfat dry milk, 2.5 g sucrose and 3 ml water). Immediately after the meal, the animals were injected intravenously (db/db) or intraperitoneally (db^Pas/db^Pas) with either 200 μL physiological saline or 200 μL of the same solution containing recombinant mouse leptin. At selected time intervals, 20 μL of blood were collected from the orbital (db^Pas/db^Pas) or tail (db/db) vein into ice-cold microfuge tubes containing 4 mmol/L EDTA. Plasma was obtained by centrifugation at 2500 rpm for 20 min at 4° C., and was frozen as aliquots at −80° C. before analysis. TG concentrations were determined using a commercially available enzymatic kit with controls included in each assay (Precinorm L, Roche-Boehringer Mannheim; Lyotrol N, BioMérieux).
The inhibition of the intestinal absorption of dietary lipids by leptin was also investigated. Overnight-fasted ob/ob mice were gavage-fed a high fat test meal. […] Blood samples were taken at 2 and 3 h after the test meal, and plasma TG concentrations were measured (see Table, below). […]

LDL-receptor = LDL-receptor (Homo sapiens, UniProt P01130); experiment: Degradation of LDL by the LDL-receptor; type: cell-based; conditions: leptin up to 2 μg/mL
LDL-receptor, sequence (P01130 22-860, species assumed): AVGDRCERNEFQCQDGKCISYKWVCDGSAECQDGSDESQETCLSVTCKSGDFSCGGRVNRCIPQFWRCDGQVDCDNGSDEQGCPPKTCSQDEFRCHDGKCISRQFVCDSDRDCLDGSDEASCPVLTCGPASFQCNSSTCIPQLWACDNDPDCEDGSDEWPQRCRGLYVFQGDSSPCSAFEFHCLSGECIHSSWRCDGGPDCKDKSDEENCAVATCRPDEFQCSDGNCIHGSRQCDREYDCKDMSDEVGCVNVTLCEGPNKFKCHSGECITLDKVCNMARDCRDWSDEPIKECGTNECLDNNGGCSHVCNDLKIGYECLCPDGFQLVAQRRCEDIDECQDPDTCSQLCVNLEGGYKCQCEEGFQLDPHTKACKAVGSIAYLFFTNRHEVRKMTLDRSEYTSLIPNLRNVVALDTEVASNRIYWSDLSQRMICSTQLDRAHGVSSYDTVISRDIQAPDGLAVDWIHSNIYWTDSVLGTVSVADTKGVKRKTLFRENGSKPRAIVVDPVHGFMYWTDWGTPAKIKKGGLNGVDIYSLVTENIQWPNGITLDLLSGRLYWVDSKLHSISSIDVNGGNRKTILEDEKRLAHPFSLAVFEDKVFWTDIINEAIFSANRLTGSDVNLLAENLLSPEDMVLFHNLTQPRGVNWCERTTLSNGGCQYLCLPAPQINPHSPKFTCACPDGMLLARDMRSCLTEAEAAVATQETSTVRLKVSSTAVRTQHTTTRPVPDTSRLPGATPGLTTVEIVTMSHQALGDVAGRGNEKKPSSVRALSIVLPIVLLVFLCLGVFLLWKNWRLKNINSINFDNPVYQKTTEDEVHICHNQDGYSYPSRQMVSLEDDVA

oleate-induced LDL degradation (LSR) | oleate-induced LDL binding (LSR) | oleate-induced binding of 125I-LDL (LSR; primary cultures of rat hepatocytes (FIG. 11B insert)) | degradation of LDL by the LDL-receptor (LDL-receptor) | Substance | postprandial lipemic response (ob/ob mice) | Plasma TG 2-3 hours after test meal (ob/ob mice; i.v. 0.5 μg recombinant mouse leptin and/or 2.5 mg lactoferrin, mean ± SD)
inhibitory effect | increased |  |  | CHLPWASGLETLDSLGGVLEAS (listed as Homo sapiens) [human peptide, human leptin fragment residues 117-138, 22-mer] |  | 
inhibitory effect | increased | stimulate |  | CSLPQTSGLQKPESLDGVLEAS (listed as Mus musculus) [mouse peptide, mouse leptin fragment residues 117-138, 22-mer] | reduced the postprandial lipemic response | 
 |  |  | no detectable effect | leptin: plasma protein of 16 kDa produced by adipocytes; recombinant human or mouse leptin, species depends on the experiment | decreases the postprandial lipemic response | 0.79 ± 0.1* mg/mL
